Target: H1047R PIK3CA enzyme (Homo sapiens, UniProt P42336, H1047R)
Test: ADP-Glo Biochemical PIK3CA Kinase Assay

Chain of H1047R PIK3CA enzyme (P42336 whole entry H1047R): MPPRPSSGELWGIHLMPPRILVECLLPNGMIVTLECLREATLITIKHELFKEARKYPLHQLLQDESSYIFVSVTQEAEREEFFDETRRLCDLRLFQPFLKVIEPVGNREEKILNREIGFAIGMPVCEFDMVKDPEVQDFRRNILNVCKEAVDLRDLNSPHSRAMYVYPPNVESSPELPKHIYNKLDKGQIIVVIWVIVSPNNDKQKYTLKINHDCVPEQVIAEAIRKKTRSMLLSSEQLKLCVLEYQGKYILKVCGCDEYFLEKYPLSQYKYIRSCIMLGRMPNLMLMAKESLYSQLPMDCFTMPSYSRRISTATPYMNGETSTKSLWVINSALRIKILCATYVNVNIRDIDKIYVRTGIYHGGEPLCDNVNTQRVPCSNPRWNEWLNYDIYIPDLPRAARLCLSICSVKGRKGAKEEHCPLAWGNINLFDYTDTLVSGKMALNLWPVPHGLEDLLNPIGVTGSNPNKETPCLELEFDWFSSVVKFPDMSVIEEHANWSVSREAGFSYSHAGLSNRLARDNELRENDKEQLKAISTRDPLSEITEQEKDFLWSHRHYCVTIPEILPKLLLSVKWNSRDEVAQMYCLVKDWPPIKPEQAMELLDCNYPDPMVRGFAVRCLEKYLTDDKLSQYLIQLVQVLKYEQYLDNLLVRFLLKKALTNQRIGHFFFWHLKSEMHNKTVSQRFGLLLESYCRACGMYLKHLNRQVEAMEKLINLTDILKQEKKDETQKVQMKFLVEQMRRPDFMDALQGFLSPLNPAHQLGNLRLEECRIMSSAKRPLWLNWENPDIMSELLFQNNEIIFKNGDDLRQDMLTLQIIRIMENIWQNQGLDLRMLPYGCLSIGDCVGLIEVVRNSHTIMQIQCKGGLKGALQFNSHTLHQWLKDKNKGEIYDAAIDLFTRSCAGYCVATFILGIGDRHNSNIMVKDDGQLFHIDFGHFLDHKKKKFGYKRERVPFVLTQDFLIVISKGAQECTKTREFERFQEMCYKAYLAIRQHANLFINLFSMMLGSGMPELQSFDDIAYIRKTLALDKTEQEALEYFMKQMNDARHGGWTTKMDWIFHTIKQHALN
Chain of H1047R PIK3CA enzyme (P27986 whole entry partner): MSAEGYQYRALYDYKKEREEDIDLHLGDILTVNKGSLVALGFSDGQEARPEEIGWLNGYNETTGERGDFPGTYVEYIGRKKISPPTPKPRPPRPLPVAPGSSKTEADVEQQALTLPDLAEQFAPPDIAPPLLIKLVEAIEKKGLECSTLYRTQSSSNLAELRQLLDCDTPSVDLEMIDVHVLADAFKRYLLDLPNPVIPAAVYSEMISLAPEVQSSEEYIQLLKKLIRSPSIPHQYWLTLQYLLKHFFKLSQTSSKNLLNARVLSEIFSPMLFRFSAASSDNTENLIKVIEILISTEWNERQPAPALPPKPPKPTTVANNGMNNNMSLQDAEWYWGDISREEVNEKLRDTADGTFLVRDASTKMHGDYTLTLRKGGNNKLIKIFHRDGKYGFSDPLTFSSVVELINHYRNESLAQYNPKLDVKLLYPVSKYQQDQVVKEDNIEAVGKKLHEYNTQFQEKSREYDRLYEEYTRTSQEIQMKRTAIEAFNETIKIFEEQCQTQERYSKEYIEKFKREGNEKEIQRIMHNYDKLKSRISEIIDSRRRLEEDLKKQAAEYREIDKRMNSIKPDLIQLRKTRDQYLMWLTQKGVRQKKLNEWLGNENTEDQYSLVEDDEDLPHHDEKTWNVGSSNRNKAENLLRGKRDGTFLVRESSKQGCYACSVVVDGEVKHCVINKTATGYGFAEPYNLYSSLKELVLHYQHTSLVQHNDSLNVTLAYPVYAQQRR

Row | IC50 [µM] | SMILES
1 | 0.5 to 1 | O=C(Nc1cc(-c2ccc3nccn3c2)cc2c1[C@@H](c1cc(F)ccc1Cl)NC2=O)c1cc(F)cc(C(F)(F)F)c1 [Compound I-826]
2 | 0.1 to 0.5 | O=C(Nc1cc(-c2ccncc2C(=O)O)cc2c1C(c1cc(F)ccc1Cl)NC2=O)c1cc(F)cc(C(F)(F)F)c1 (stereo not shown) [Compound I-1217]
3 | 10 to 100 | CNS(=O)(=O)c1cc(-c2ccc3ncnn3c2)cc2c1C(c1cc(F)ccc1Cl)NC2=O (stereo not shown) [Compound I-1977]
4 | 10 to 100 | Cc1ccccc1[C@H]1NC(=O)c2cccc(NC(=O)c3coc4c(F)cc(F)cc34)c21 [Compound I-97]
5 | 1 to 10 | CC(C#N)c1cc(NC(=O)c2cc(F)cc(C(F)(F)F)c2)c2c(c1)C(=O)N[C@@H]2c1cc(F)ccc1Cl (stereo partly shown) [Compound I-2289]
6 | 0.1 to 0.5 | COC(=O)c1cc(NC(=O)c2nsc3ccccc23)c2c(n1)C(=O)NC2c1ccccc1Cl (stereo not shown) [Compound I-222, Methyl 4-(1,2-benzothiazole-3-amido)-5-(2-chlorophenyl)-7-oxo-5H,6H,7H-pyrrolo[3,4-b]pyridine-2-carboxylate]
7 | 0.1 to 0.5 | [2H]C([2H])(c1cc(NC(=O)c2cc(F)cc(C(F)(F)F)c2)c2c(c1)C(=O)N[C@@H]2c1cc(F)ccc1Cl)S(C)(=O)=O (single isomer, unassigned) [Compound I-1788]
8 | 10 to 100 | O=C1NCc2c(NC(=O)c3coc4ccc(Cl)cc34)cccc21 [Compound I-402]
9 | 1 to 10 | O=C1NC(c2cc(F)ccc2Cl)c2c(NC(=O)C3CCS(=O)(=O)CC3)cc(-c3ccc4ncnn4c3)cc21 (stereo not shown) [Compound I-2045]
10 | 0.5 to 1 | O=C(Nc1cc(Br)cc2c1C(c1cc(F)ccc1Cl)NC2=O)c1cc(F)cc(CC(F)(F)F)c1 (stereo not shown) [Compound I-1582]
11 | ≤ 0.1 | CS(=O)(=O)n1cc(-c2cc(NC(=O)c3cc(F)cc(C(F)(F)F)c3)c3c(c2)C(=O)N[C@H]3c2cc(F)ccc2Cl)cn1 [Compound I-1996]
12 | ≤ 0.1 | O=C(Nc1cc(-n2cnc3ncccc32)cc2c1C(c1cc(F)ccc1Cl)NC2=O)c1cc(F)cc(C(F)(F)F)c1 (stereo not shown) [Compound I-1233]
13 | 10 to 100 | O=C(Nc1cccc2c1[C@H]([C@H]1CCCCCN1)NC2=O)c1cc(F)cc(C(F)(F)F)c1 (racemic) [Compound I-2318]
14 | 10 to 100 | COc1cc(C(=O)Nc2cc(N)cc3c2C(c2cc(F)ccc2C(F)F)NC3=O)cc(F)c1N (stereo not shown) [Compound I-474]
15 | 1 to 10 | O=C1N[C@H](c2cc(F)ccc2Cl)c2c(NC(=O)N3C[C@@](O)(C(F)(F)F)c4cc(F)ccc43)cc(Cl)cc21 (single isomer, unassigned) [Compound I-2510]
16 | ≤ 0.1 | N#Cc1cnc2c(F)cc(-c3cc(NC(=O)c4cc(F)cc(C(F)(F)F)c4)c4c(c3)C(=O)N[C@H]4c3cc(F)ccc3Cl)cn12 [Compound I-1856]
17 | ≤ 0.1 | N#Cc1c(-c2cc(NC(=O)c3cc(F)cc(C(F)(F)F)c3)c3c(c2)C(=O)N[C@H]3c2cc(F)ccc2Cl)cnn1C(F)F [Compound I-1921]
18 | ≤ 0.1 | Nc1cc(NC(=O)N2C[C@H](O)c3ccccc32)c2c(c1)C(=O)N[C@H]2c1cc(F)ccc1Cl (single isomer, unassigned) [Compound I-2132]
19 | 1 to 10 | Cc1c(F)cccc1[C@H]1NC(=O)c2cc(Br)cc(NC(=O)c3cc(F)cc(C(F)(F)F)c3)c21 [Compound I-749]
20 | ≤ 0.1 | O=C(Nc1cc(-c2ccc3nc(Cl)nn3c2)cc2c1[C@H](c1cc(F)ccc1Cl)NC2=O)c1cc(F)cc(C(F)(F)F)c1 [Compound I-1693]

Row | IC50 [µM] | SMILES
21 | ≤ 0.1 | O=C(Nc1cc(CN2CC(F)(F)C2)cc2c1C(c1cc(F)ccc1Cl)NC2=O)c1cc(F)cc(C(F)(F)F)c1 (stereo not shown) [Compound I-348, N-(3-(2-Chloro-5-fluorophenyl)-6-((3,3-difluoroazetidin-1-yl)methyl)-1-oxoisoindolin-4-yl)-3-fluoro-5-(trifluoromethyl)benzamide]
22 | ≤ 0.1 | CC(C)Cc1cc(NC(=O)c2cc(F)cc(C(F)(F)F)c2)c2c(c1)C(=O)NC2c1cc(F)ccc1Cl (stereo not shown) [Compound I-293]
23 | ≤ 0.1 | O=C(Nc1cc(C#Cc2ccncc2)cc2c1C(c1cc(F)ccc1Cl)NC2=O)c1cc(F)cc(C(F)(F)F)c1 (stereo not shown) [Compound I-1224]
24 | 1 to 10 | O=C(Nc1cc(-c2ccn3ncnc3c2F)cc2c1[C@@H](c1cc(F)ccc1Cl)NC2=O)c1cc(F)cc(C(F)(F)F)c1 [Compound I-1764]
25 | 1 to 10 | Cc1cn(-c2cc(NC(=O)N3C[C@@](O)(C(F)(F)F)c4cc(F)ccc43)c3c(c2)C(=O)N[C@H]3c2cc(F)ccc2Cl)cn1 (single isomer, unassigned) [Compound I-2638]
26 | 10 to 100 | CCC1CCN(C(=O)Nc2cccc3c2C(c2cc(F)ccc2Cl)NC3=O)C1 (stereo not shown) [Compound I-2420]
27 | 1 to 10 | O=C(Nc1ccnc2c1C(c1cccc(F)c1F)NC2=O)c1cc(F)cc(C(F)(F)F)c1 (stereo not shown) [Compound I-174]
28 | 10 to 100 | O=C1NC(c2cc(F)ccc2Cl)c2c(OCc3cc(F)cc(C(F)(F)F)c3)cccc21 (stereo not shown) [Compound I-2295]
29 | 10 to 100 | O=C1N[C@H](c2cc(F)ccc2Cl)c2c(NC(=O)[C@@H]3CC[C@H](O)C3)cc(Br)cc21 (single isomer, unassigned) [Compound I-2105]
30 | 1 to 10 | O=C1NC(c2cc(F)ccc2Cl)c2c(NC(=O)C3CC4(CCC4)C3)cc(Br)cc21 (stereo not shown) [Compound I-1362]
31 | ≤ 0.1 | O=C(Nc1cc(C2CN(C3COC3)C2)cc2c1C(c1cc(F)ccc1Cl)NC2=O)c1cc(F)cc(C(F)(F)F)c1 (stereo not shown) [Compound I-1280]
32 | 0.5 to 1 | Cc1ccccc1C1NC(=O)c2cccc(NC(=O)c3cc(F)n4ccccc34)c21 (stereo not shown) [Compound I-316]
33 | ≤ 0.1 | O=C(Nc1cc(N2CC(F)(F)C2)nc2c1C(c1cc(F)ccc1Cl)NC2=O)c1cc(F)cc(C(F)(F)F)c1 (stereo not shown) [Compound I-286, N-[5-(2-Chloro-5-fluorophenyl)-2-(3,3-difluoroazetidin-1-yl)-7-oxo-5H,6H,7H-pyrrolo[3,4-b]pyridin-4-yl]-3-fluoro-5-(trifluoromethyl)benzamide]
34 | ≤ 0.1 | CN1C[C@H](COc2cc(NC(=O)c3cc(F)cc(C(F)(F)F)c3)c3c(c2)C(=O)N[C@H]3c2cc(F)ccc2Cl)CC1=O (single isomer, unassigned) [Compound I-1522]
35 | 10 to 100 | Cn1nc2ccccc2c1Nc1cc(-c2ccc3ncnn3c2)cc2c1C(c1cc(F)ccc1Cl)NC2=O (stereo not shown) [Compound I-1841]
36 | ≤ 0.1 | C[S+]([O-])c1ccccc1-c1cc(NC(=O)c2cc(F)cc(C(F)(F)F)c2)c2c(c1)C(=O)NC2c1cc(F)ccc1Cl (stereo not shown) [Compound I-1150]
37 | 10 to 100 | O=C1N[C@@H](c2ccccc2Cl)c2c(NC(=O)N3C[C@](O)(C(F)(F)F)c4cc(F)ccc43)cccc21 (single isomer, unassigned) [Compound I-2686]
38 | 1 to 10 | CC(C)CC1NC(=O)c2cccc(NC(=O)c3cc(F)cc(C(F)(F)F)c3)c21 (stereo not shown) [Compound I-442]
39 | 0.1 to 0.5 | CC(=O)c1cc(NC(=O)c2cc(F)cc(Cl)c2)c2c(c1)C(=O)NC2c1cc(F)ccc1Cl (stereo not shown) [Compound I-215]
40 | ≤ 0.1 | Nc1cnc2ccc(-c3cc(NC(=O)c4cc(F)cc(C(F)(F)F)c4)c4c(c3)C(=O)NC4c3cc(F)ccc3Cl)cn12 (stereo not shown) [Compound I-1409]

Row | IC50 [µM] | SMILES
41 | 1 to 10 | O=C(Nc1cccc2c1C(N1CCC(F)(F)CC1)NC2=O)c1cc(F)cc(C(F)(F)F)c1 (stereo not shown) [Compound I-2077]
42 | 10 to 100 | O=C1NC(c2cc(F)ccc2Cl)c2c(NC(=O)N3CCCC3C3CC3)cccc21 (stereo not shown) [Compound I-2408]
43 | 1 to 10 | O=C(Nc1cnc(N2CCOCC2)c2c1C(c1cc(F)ccc1Cl)NC2=O)c1cc(F)cc(C(F)(F)F)c1 (stereo not shown) [Compound I-255]
44 | 1 to 10 | O=C1NC(c2cccnc2Cl)c2c(NC(=O)c3nsc4ccccc34)cccc21 (stereo not shown) [Compound I-158]
45 | 0.1 to 0.5 | O=C1N[C@@H](c2cc(F)ccc2Cl)c2c(NC(=O)N3C[C@@](O)(C(F)(F)F)c4cc(F)ccc43)cc(-n3ccnn3)cc21 (single isomer, unassigned) [Compound I-2549]
46 | 0.1 to 0.5 | CC(C)(O)Cc1cc(NC(=O)c2cc(F)cc(C(F)(F)F)c2)c2c(c1)C(=O)N[C@@H]2c1cc(F)ccc1Cl [Compound I-622]
47 | ≤ 0.1 | CNC(=O)Cc1cc(NC(=O)c2cc(F)cc(C(F)(F)F)c2)c2c(c1)C(=O)NC2c1cc(F)ccc1Cl (stereo not shown) [Compound I-438]
48 | ≤ 0.1 | Cn1cc(-c2cc(NC(=O)c3cc(F)cc(C(F)(F)F)c3)c3c(c2)C(=O)NC3c2cc(F)ccc2Cl)c(C#N)n1 (stereo not shown) [Compound I-1656]
49 | ≤ 0.1 | O=C(Nc1cc(OC2COC2)cc2c1C(c1cc(F)ccc1Cl)NC2=O)c1cc(F)cc(C(F)(F)F)c1 (stereo not shown) [Compound I-1131]
50 | ≤ 0.1 | O=C(Nc1cc(Br)cc2c1[C@H](c1cc(F)ccc1C(F)F)NC2=O)c1cc(F)cc(C(F)(F)F)c1 [Compound I-797]
51 | ≤ 0.1 | CC(=O)Cc1cc(NC(=O)c2cc(F)cc(C(F)(F)F)c2)c2c(c1)C(=O)N[C@@H]2c1cc(F)ccc1Cl [Compound I-623]
52 | ≤ 0.1 | O=C(Nc1cc(-c2ccncc2F)nc2c1C(c1cc(F)ccc1Cl)NC2=O)c1cc(F)cc(Cl)c1 (stereo not shown) [Compound I-502]
53 | ≤ 0.1 | N#Cc1cc2ncnn2cc1-c1cc(NC(=O)c2cc(F)cc(C(F)(F)F)c2)c2c(c1)C(=O)NC2c1cc(F)ccc1Cl (stereo not shown) [Compound I-1539]
54 | 10 to 100 | O=C(CCc1ccccc1)Nc1cccc2c1C(c1cc(F)ccc1Cl)NC2=O (stereo not shown) [Compound I-2362]
55 | 1 to 10 | O=C1NC(c2cc(F)ccc2Cl)c2c(NC(=O)n3nc(O)c4ccccc43)cccc21 (stereo not shown) [Compound I-2315]
56 | 1 to 10 | Cc1ccccc1C1NC(=O)c2cccc(NC(=O)c3cc(F)cc(C(C)C)c3)c21 (stereo not shown) [Compound I-715]
57 | 1 to 10 | O=C(Nc1cc(Br)cc2c1C(c1cc(F)ccc1Cl)NC2=O)c1cc(F)cc(COC(F)(F)F)c1 (stereo not shown) [Compound I-1241]
58 | 0.1 to 0.5 | CC(C)[C@@]1(O)CN(C(=O)Nc2cccc3c2[C@@H](c2cc(F)ccc2Cl)NC3=O)c2ccc(F)cc21 (single isomer, unassigned) [Compound I-2454]
59 | 10 to 100 | O=C1NC(c2cc(F)ccc2Cl)c2c1cc(-c1ccc3ncnn3c1)cc2N1CCn2ncnc2C1 (stereo not shown) [Compound I-2018]
60 | 1 to 10 | O=C(Nc1cc(-c2ccn3ncnc3c2)cc2c1C(c1cc(F)ccc1O)NC2=O)c1cc(F)cc(C(F)(F)F)c1 (stereo not shown) [Compound I-1655]

Row | SMILES | IC50 [µM]
61 | Nc1nc2cc(-c3cc(NC(=O)c4cc(F)cc(C(F)(F)F)c4)c4c(c3)C(=O)N[C@H]4c3cc(F)ccc3Cl)ccn2n1 [Compound I-1447] | ≤ 0.1

— patent publication US12581252B2, “Substituted pyrrolo[3,4-b]pyridines as PI3K-α inhibitors” (Relay Therapeutics, Inc., priority 2020, dated 2026)
